Assay results from US20100144868A1, “Novel Neuroprotective Compounds and Uses Thereof” (Ramot At Aviv University Ltd., priority 2005, published 2010).
Entries after “also recorded” stand apart in the source; their conditions may differ. Where two headings read alike, the source gives them in different places. Marks after values point to notes of the source that are not given here.

Legend:
[1] = for Increase of maximal aqueous solubility: with a 10 fold increase in DMSO content
Method: 20 mg of each of the tested hybrid compounds of the present invention was dissolved in 0.2 ml of DMSO and then diluted with 200 ml, 40 ml, 20 ml and 10 ml of water to obtain a 0.1%, 0.5% 0.1% and 2.0% DMSO content in the aqueous solution, respectively. Each aqueous solution was sonicated for 2 minutes, filtered through 0.2 micron filter and centrifuged at 14,000 rpm for 3 minutes. UV-VIS spectra were obtained thereafter at 476 nm to determine the solubilized fraction of the tested hybrid compound.

[2] = test system: MOG-induced EAE in NOD mice; experiment: Efficacy in MOG-induced EAE in NOD mice, Compound 20 at two doses compared to NBQX, daily from day 23; format: in vivo
Method: (§1) Mice were immunized S.C. with 150 μg of MOG 35-55 peptide in […].
(§2) Pertussis toxin was given I.V. (150 ng per mouse) at the time of immunization and 48 hours later. The severity of disease was evaluated daily on the following scale: 0 for no clinical symptoms; 1 for distal tail weakness or tail atonia; 2 for impaired righting reflex and slight hind limb paralysis; 3 for complete paralysis affecting of both hind limbs; 4 for complete paralysis affecting of both hind limbs and fore limb weakness, or moribund state; and 5 for death.

[3] = test system: MOG-induced EAE in NOD mice; experiment: Efficacy in MOG-induced EAE in NOD mice, daily treatment from day 20 to day 70; format: in vivo; settings: for Severity of EAE (in words): compared to carboxyfullerene treated and vehicle (PBS) treated mice, Table 3, FIG. 3; for Phase II Second Peak Mean Score Disease / Phase III Third Peak Mean Score Disease / Phase IV Secondary Progressive Mean Score Disease: scale 0-5; for Cumulative Score: days 21-70; for Prevalence of Disease with score above 1.5: treated daily from day 20 after immunization to day 70; for Phase IV Secondary Progressive Mean Score Disease: day 70
Method: Non-obese diabetic (NOD) mice were purchased from Jackson laboratories. The mice were maintained in viral antibody-free (VAF) facility at Harvard Institutes of Medicine animal care facility and used at 10 weeks of age.
Myelin oligodendrocyte glycoprotein (MOG 35-55) was synthesized at the peptide/protein facility at the center for neurologic disease at BWH, Boston, Mass., USA.
as §1, §2

[4] = test system: spinal cord of EAE-induced NOD mice; experiment: Histological staining of spinal cord sections of EAE-induced NOD mice (Bielschowsky silver, Luxol fast blue); format: in vivo
Method: The attenuation of EAE progress in model animals was further tested by following pathological findings thereof in 7 μm coronal spinal cord section samples of the tested mice under cryogenic conditions. The axonal pathology analysis was performed on day 63 post-immunization by immunostaining of spinal cord sections. Spinal cord sections from mice were fixed in 4% paraformaldehyde overnight followed by 4.5% sucrose for 4 hours, then 20% sucrose for overnight at 4° C. Spinal cord sections were frozen and stored until used at −80° C.
Histological staining studies of spinal cord sections were preformed according to the Bielschowsky silver staining method, which specifically stains nerve fibers and axons so as to appear in black when observed under an optical microscope, and according to the Luxol fast blue staining method, which specifically stains myelin/myelinated axons so as to stain the myelin in blue-green while the neuron remains pink when observed under an optical microscope. Reduction in the degree of staining expresses damage to the neuron.
The Bielschowsky silver staining was performed as described before in Litchfield and Nagy, Acta Neuropathol (Berl) 2001, 101(1), pp. 17-21. Briefly, spinal cord sections were place in pre-warmed solution of 10% silver nitrate placed in a 40° C. oven and shaken for 15 minutes until sections became light brown in color, and thereafter rinsed in water. The spinal cord sections were thereafter placed back in the same ammonium silver solution and placed in a 40° C. oven for additional 30 minutes and rinse in water followed by dehydration in 95% ethyl alcohol, absolute alcohol and xylene.
The Luxol fast blue staining was perform as described before in Dolcetta et al J Neurosci Res.; 81(4):597-604. Briefly, spinal cord sections were placed in luxol fast blue solution in a 56° C. oven for 16 hours and rinsed with 95% ethyl alcohol and distilled water. Thereafter the spinal cord sections were placed in carbonate solution for 30 seconds and rinsed in water followed by dehydration in 95% ethyl alcohol, absolute alcohol and xylene. […]

[5] = 0.1% DMSO content in final aqueous solution
[6] = 0.5% DMSO content in final aqueous solution

Compound | Increase of maximal aqueous solubility [1] | Maximal aqueous concentration [1, 5] | Maximal aqueous concentration [1, 6] | Severity of EAE (in words) [3] | Phase II Second Peak Mean Score Disease ([3]; day 26) | Phase II Second Peak Mean Score Disease ([3]; day 27) | Phase III Third Peak Mean Score Disease ([3]; day 31) | Phase III Third Peak Mean Score Disease ([3]; day 38) | Cumulative Score [3] | Prevalence of Disease with score above 1.5 [3] | Phase IV Secondary Progressive Mean Score Disease [3] | other results
2,2-fullerenyl-malonic acid bis(adamantan-1-ylcarbamate-diethyleneglycol) ester [Compound 16] | 20 fold | – | – | – | – | – | – | – | – | – | – | –
2,2-fullerenyl-malonic acid bis(adamantan-1-ylcarbamate-poly(n)ethyleneglycol) ester wherein average n=10 [Compound 19] | 6 fold | 1.17 10^−5 M | 5.12 10^−5 M | – | – | – | – | – | – | – | – | Maximal aqueous concentration ([1]; 1.0% DMSO content in final aqueous solution): 6.97 10^−5 M
2,2-fullerenyl-malonic acid bis(adamantan-1-ylcarbamate-poly(n)ethyleneglycol) ester wherein average n=10 [Compound 20] | – | – | – | clearly reduce the severity of relapsing-remitting EAE; also recorded: reduction in severity of the disease | 0.70* | 0.55* | 0.60* | 0.65* | 53.0* | 4/10 | – | Severity of the disease, mean disease score (in words) ([2]; 30 μg/Kg and 300 μg/Kg, compared to NBQX treated and untreated mice, FIG. 4): reduction in severity of the disease; Death ([2]; 30 μg/Kg daily from day 23): 0/14; Phase II Second Peak Mean Score Disease ([2]; 30 μg/Kg daily from day 23, day 37): 1.60*; Phase II Second Peak Mean Score Disease ([2]; 30 μg/Kg daily from day 23, day 41): 1.50*; Phase III Secondary Progressive Mean Score Disease ([2]; 30 μg/Kg daily from day 23, day 62): 2.12*; Phase III Secondary Progressive Mean Score Disease ([2]; 30 μg/Kg daily from day 23, day 63): 2.15*; Protection from progression of chronic EAE (in words) ([2]; 30 μg/Kg daily, compared to 300 μg/Kg): significantly protect progression of chronic EAE; Death ([2]; 300 μg/Kg daily from day 23): 2/14; Phase II Second Peak Mean Score Disease ([2]; 300 μg/Kg daily from day 23, day 37): 2.25; Phase II Second Peak Mean Score Disease ([2]; 300 μg/Kg daily from day 23, day 41): 2.25; Phase III Secondary Progressive Mean Score Disease ([2]; 300 μg/Kg daily from day 23, day 62): 3.08; Phase III Secondary Progressive Mean Score Disease ([2]; 300 μg/Kg daily from day 23, day 63): 3.17; Axonal density / axonal damage in white matter of spinal cord (in words) ([4]; Bielschowsky silver impregnation, day 63 post-immunization, compared to untreated control mice, FIG. 5): reduction of EAE-derived axonal damage; also recorded: lower reduction in axonal density; Demyelination of axons in white matter of spinal cord (in words) ([4]; Luxol fast blue staining, compared to untreated control mice, FIG. 6): reduction in demyelination of axons; Progression of chronic EAE as damage to neurons (in words) ([4]; treatment initiated after disease onset, FIGS. 5 and 6): lesser damage caused to the neurons
2,2-fullerenyl-malonic acid bis(adamantan-1-ylcarbamate-tetraethyleneglycol) ester [Compound 6] | more than 2.6 fold | 1.18 10^−5 M | 1.38 10^−5 M | clearly reduce the severity of relapsing-remitting EAE; also recorded: reduction in severity of the disease | 0.75* | 0.80 | 0.90* | 1.30 | 90.6 | 9/10 | 2.85 | Maximal aqueous concentration ([1]; 2.0% DMSO content in final aqueous solution): 0.036 mg/mL
O=C(O)C1(C(=O)O)C2=C1C1C3C4=c5c6c7c8c(c9c(c%10c%11c%12c%13c%14c%15c%16c(c2c3c%16c5c%14c6c%12c%108)C=CC%152C(C(=O)O)(C(=O)O)C%132C=C%11)C9(C(=O)O)C(=O)O)C2C=CC1C4C72 (stereo not drawn) [Carboxyfullerene, C3-stereoisomer of trimalonic acid derivative of a C60 fullerene, reference compound] | – | – | – | – | 1.00 | 0.85 | 1.15 | 1.45 | 87.45 | 8/10 | 2.65 | –
NS(=O)(=O)c1cccc2c1c([N+](=O)[O-])cc1nc(O)c(O)nc12 [NBQX, 2,3-dihydroxy-6-nitro-7-sulfamoyl-benzo(f)quinoxaline, reference compound] | – | – | – | – | – | – | – | – | – | – | – | Death ([2]; 30 mg/Kg daily from day 23): 6/14; Phase II Second Peak Mean Score Disease ([2]; 30 mg/Kg daily from day 23, day 37): 1.75; Phase II Second Peak Mean Score Disease ([2]; 30 mg/Kg daily from day 23, day 41): 1.88; Phase III Secondary Progressive Mean Score Disease ([2]; 30 mg/Kg daily from day 23, day 62): 3.31; Phase III Secondary Progressive Mean Score Disease ([2]; 30 mg/Kg daily from day 23, day 63): 3.38; Suppression of the second phase of EAE (in words) ([2]; 30 mg/Kg, Table 4, FIG. 4): showed a tendency to suppress the second phase of EAE; Preventing the chronic disease progression (in words) ([2]; NBQX 30 mg/Kg compared to Compound 20 at 30 and 300 μg/Kg): not as effective as the Compound 20
